target: T1, HIV-integrase (Human immunodeficiency virus type 1 group M subtype B, UniProt P12497); assay: HIV-Integrase Inhibition Activity (SPA bead integration assay with P33 labeled target DNA); assay type: biochemical; details: in vitro activity, recombinant integrase, class symbols
T1 construct: Recombinant integrase (0.26 ng) was incubated with the beads
Summary of the method: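 Strand integration read as bead-proximity CPM after P33 target DNA (0.1 fmol) and inhibitor were added to washed integrase–substrate DNA complexes on SPA beads. Enzyme bound 90 min at 37° C; EDTA (10 mM final) terminated reaction; IC50 graded A/B/C.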

Structure (SMILES) | IC50 [µM]
CC(=O)N[C@H]1c2nc(C(=O)NCc3ccc(F)cc3)c(O)c(=O)n2C[C@H]2CC[C@]1(C)C2(C)C [Example 184, (7S,10R,11R)-11-(Acetylamino)-N-(4-fluorobenzyl)-3-hydroxy-10,12,12-trimethyl-4-oxo-6,7,8,9,10,11-hexahydro-4H-7,10-methanopyrimido[1,2-a]azocine-2-carboxamide] | 0.01 to 0.1
CC1(C)[C@@H]2CC[C@@]1(C)[C@@H](NS(C)(=O)=O)c1nc(C(=O)NCc3ccc(F)cc3)c(O)c(=O)n1C2 [Example 185, (7S,10R,11R)—N-(4-Fluorobenzyl)-3-hydroxy-10,12,12-trimethyl-11-((methylsulfonyl)amino)-4-oxo-6,7,8,9,10,11-hexahydro-4H-7,10-methanopyrimido[1,2-a]azocine-2-carboxamide] | > 0.1

same assay, conditions: recombinant integrase, class symbols; read-out: in vitro activity

Structure (SMILES) | IC50 [µM]
CN(C)C(=O)C(=O)N[C@H]1c2nc(C(=O)NCc3ccc(F)cc3)c(O)c(=O)n2C[C@H]2CC[C@]1(C)C2(C)C [Example 183, N′-((7S,10R,11R)-2-((4-Fluorobenzyl)carbamoyl)-3-hydroxy-10,12,12-trimethyl-4-oxo-6,7,8,9,10,11-hexahydro-4H-7,10-methanopyrimido[1,2-a]azocin-11-yl)-N,N-dimethylethanediamide] | 0.01 to 0.1
CN(C)C(=O)C(=O)NC12CCCC(Cn3c1nc(C(=O)NCc1ccc(F)cc1)c(O)c3=O)C2 (stereo not drawn) [Example 186, Ethanediamide, N′-[2-[[[(4-fluorophenyl)methyl]amino]carbonyl]-7,8,9,10-tetrahydro-3-hydroxy-4-oxo-7,11-methano-4H-pyrimido[1,2-a]azocin-11(6H)-yl]-N,N-dimethyl-] | < 0.01
CC(=O)NC12CCCC(Cn3c1nc(C(=O)NCc1ccc(F)cc1)c(O)c3=O)C2 (stereo not drawn) [Example 187, 7,11-Methano-4H-pyrimido[1,2-a]azocine-2-carboxamide, 11-(acetylamino)-N-[(4-fluorophenyl)methyl]-6,7,8,9,10,11-hexahydro-3-hydroxy-4-oxo-] | < 0.01
CN(C)C(=O)C(=O)NC12CCC(Cn3c1nc(C(=O)NCc1ccc(F)cc1)c(O)c3=O)C2 (stereo not drawn) [Example 188, Ethanediamide, N′-[2-[[[(4-fluorophenyl)methyl]amino]carbonyl]-6,7,8,9-tetrahydro-3-hydroxy-4-oxo-7,11-methanopyrimido[1,2-a]azepin-10(4H)-yl]-N,N-dimethyl-] | < 0.01
O=C(NC12CCC(Cn3c1nc(C(=O)NCc1ccc(F)cc1)c(O)c3=O)C2)OCc1ccccc1 (stereo not drawn) [Example 189, Carbamic acid, [2-[[[(4-fluorophenyl)methyl]amino]carbonyl]-6,7,8,9-tetrahydro-3-hydroxy-4-oxo-7,10-methanopyrimido[1,2-a]azepin-10(4H)-yl]-, phenylmethyl ester] | < 0.01
NC12CCC(Cn3c1nc(C(=O)NCc1ccc(F)cc1)c(O)c3=O)C2 (stereo not drawn) [Example 190, 7,10-Methanopyrimido[1,2-a]azepine-2-carboxamide, 10-amino-N-[(4-fluorophenyl)methyl]-4,6,7,8,9,10-hexahydro-3-hydroxy-4-oxo-] | 0.01 to 0.1
CC(=O)NC12CCC(Cn3c1nc(C(=O)NCc1ccc(F)cc1)c(O)c3=O)C2 (stereo not drawn) [Example 191, 7,10-Methanopyrimido[1,2-a]azepine-2-carboxamide, 10-(acetylamino)-N-[(4-fluorophenyl)methyl]-4,6,7,8,9,10-hexahydro-3-hydroxy-4-oxo-] | < 0.01
CS(=O)(=O)NC12CCC(Cn3c1nc(C(=O)NCc1ccc(F)cc1)c(O)c3=O)C2 (stereo not drawn) [Example 192, 7,10-Methanopyrimido[1,2-a]azepine-2-carboxamide, N-[(4-fluorophenyl)methyl]-4,6,7,8,9,10-hexahydro-3-hydroxy-10-[(methylsulfonyl)amino]-4-oxo-] | < 0.01
CNC(=O)C(=O)NC12CCC(Cn3c1nc(C(=O)NCc1ccc(F)cc1)c(O)c3=O)C2 (stereo not drawn) [Example 193, Ethanediamide, N-[2-[[[(4-fluorophenyl)methyl]amino]carbonyl]-6,7,8,9-tetrahydro-3-hydroxy-4-oxo-7,10-methanopyrimido[1,2-a]azepin-10(4H)-yl]-N′-methyl-] | < 0.01
O=C(NC12CCC(Cn3c1nc(C(=O)NCc1ccc(F)c(Cl)c1)c(O)c3=O)C2)OCc1ccccc1 (stereo not drawn) [Example 194, Carbamic acid, [2-[[[(3-chloro-4-fluorophenyl)methyl]amino]carbonyl]-6,7,8,9-tetrahydro-3-hydroxy-4-oxo-7,10-methanopyrimido[1,2-a]azepin-10(4H)-yl]-, phenylmethyl ester] | < 0.01
CN(C)C12CCC(Cn3c1nc(C(=O)NCc1ccc(F)cc1)c(O)c3=O)C2 (stereo not drawn) [Example 195, 7,10-Methanopyrimido[1,2-a]azepine-2-carboxamide, 10-(dimethylamino)-N-[(4-fluorophenyl)methyl]-4,6,7,8,9,10-hexahydro-3-hydroxy-4-oxo-] | 0.01 to 0.1
Cc1cc(CNC(=O)c2nc3n(c(=O)c2O)CC2CCC3(NC(=O)C(=O)N(C)C)C2)ccc1F (stereo not drawn) [Example 196, Ethanediamide, N′-[2-[[[(4-fluoro-3-methylphenyl)methyl]amino]carbonyl]-6,7,8,9-tetrahydro-3-hydroxy-4-oxo-7,10-methanopyrimido[1,2-a]azepin-10(4H)-yl]-N,N-dimethyl-] | < 0.01
CN(C)C(=O)C(=O)NC12CCC(CCn3c1nc(C(=O)NCc1ccc(F)cc1)c(O)c3=O)C2 (stereo not drawn) [Example 199, Ethanediamide, N′-[2-[[[(4-fluorophenyl)methyl]amino]carbonyl]-7,8,9,10-tetrahydro-3-hydroxy-4-oxo-8,11-methano-4H-pyrimido[1,2-a]azocin-11(6H)-yl]-N,N-dimethyl-] | < 0.01
O=C(NC12CCC(CCn3c1nc(C(=O)NCc1ccc(F)cc1)c(O)c3=O)C2)C(=O)N1CCCC1 (stereo not drawn) [Example 200, 8,11-Methano-4H-pyrimido[1,2-a]azocine-2-carboxamide, 11-[[1,2-dioxo-2-(1-pyrrolidinyl)ethyl]amino]-N-[(4-fluorophenyl)methyl]-6,7,8,9,10,11-hexahydro-3-hydroxy-4-oxo] | < 0.01
CCN(CC)C(=O)C(=O)NC12CCC(CCn3c1nc(C(=O)NCc1ccc(F)cc1)c(O)c3=O)C2 (stereo not drawn) [Example 201] | < 0.01
O=C(NC12CCC(CCn3c1nc(C(=O)NCc1ccc(F)cc1)c(O)c3=O)C2)C(=O)N1CC(F)(F)C1 (stereo not drawn) [Example 202, 8,1,1-Methano-4H-pyrimido[1,2-a]azocine-2-carboxamide, 1′-[[2-(3,3-difluoro-1-azetidinyl)-1,2-dioxoethyl]amino]-N-[(4-fluorophenyl)methyl]-6,7,8,9,10,11-hexahydro-3-hydroxy-4-oxo-] | < 0.01
O=C(NC12CCC(CCn3c1nc(C(=O)NCc1ccc(F)cc1)c(O)c3=O)C2)C(=O)N1CCC(F)CC1 (stereo not drawn) [Example 203, 8,1,1-Methano-4H-pyrimido[1,2-a]azocine-2-carboxamide, N-[(4-fluorophenyl)methyl]-11-[[2-(4-fluoro-1-piperidinyl)-1,2-dioxoethyl]amino]-6,7,8,9,10,11-hexahydro-3-hydroxy-4-oxo-] | < 0.01
CCN(C)C(=O)C(=O)NC12CCC(CCn3c1nc(C(=O)NCc1ccc(F)cc1)c(O)c3=O)C2 (stereo not drawn) [Example 204] | < 0.01
COCCN(C)C(=O)C(=O)NC12CCC(CCn3c1nc(C(=O)NCc1ccc(F)cc1)c(O)c3=O)C2 (stereo not drawn) [Example 205, Ethanediamide, N′-[2-[[[(4-fluorophenyl)methyl]amino]carbonyl]-7,8,9,10-tetrahydro-3-hydroxy-4-oxo-8,11-methano-4H-pyrimido[1,2-a]azocin-11(6H)-yl]-N-(2-methoxyethyl)-N-methyl-] | < 0.01
CC(C)N(C)C(=O)C(=O)NC12CCC(CCn3c1nc(C(=O)NCc1ccc(F)cc1)c(O)c3=O)C2 (stereo not drawn) [Example 206, Ethanediamide, N′-[2-[[[(4-fluorophenyl)methyl]amino]carbonyl]-7,8,9,10-tetrahydro-3-hydroxy-4-oxo-8,11-methano-4H-pyrimido[1,2-a]azocin-11(6H)-yl]-N-methyl-N-(1-methylethyl)-] | < 0.01
O=C(NC12CCC(CCn3c1nc(C(=O)NCc1ccc(F)cc1)c(O)c3=O)C2)C(=O)N1CC[C@H](F)C1 (stereo partly drawn) [Example 207, 8,11-Methano-4H-pyrimido[1,2-a]azocine-2-carboxamide, N-[(4-fluorophenyl)methyl]-11-[[2-[(3S)-3-fluoro-1-pyrrolidinyl]-1,2-dioxoethyl]amino]-6,7,8,9,10,11-hexahydro-3-hydroxy-4-oxo-] | < 0.01
O=C(NC12CCC(CCn3c1nc(C(=O)NCc1ccc(F)cc1)c(O)c3=O)C2)C(=O)N1CC[C@@H](F)C1 (stereo partly drawn) [Example 208, 8,11-Methano-4H-pyrimido[1,2-a]azocine-2-carboxamide, N-[(4-fluorophenyl)methyl]-11-[[2-[(3R)-3-fluoro-1-pyrrolidinyl]-1,2-dioxoethyl]amino]-6,7,8,9,10,11-hexahydro-3-hydroxy-4-oxo-] | < 0.01
CN(CCF)C(=O)C(=O)NC12CCC(CCn3c1nc(C(=O)NCc1ccc(F)cc1)c(O)c3=O)C2 (stereo not drawn) [Example 209, Ethanediamide, N-(2-fluoroethyl)-N′-[2-[[[(4-fluorophenyl)methyl]amino]carbonyl-7,8,9,10-tetrahydro-3-hydroxy-4-oxo-8,11-methano-4H-pyrimido[1,2-a]azocin-1](6H)-yl]-N-methyl] | < 0.01
COC(=O)C(=O)NC12CCC(CCn3c1nc(C(=O)NCc1ccc(F)cc1)c(O)c3=O)C2 (stereo not drawn) [Example 210, Acetic acid, [[2-[[[(4-fluorophenyl)methyl]amino]carbonyl]-7,8,9,10-tetrahydro-3-hydroxy-4-oxo-8,1′-methano-4H-pyrimido[1,2-a]azocin-11(6H)-yl]amino]oxo-, methyl ester] | < 0.01
CN(C)C(=O)C(=O)N(C)C12CCC(CCn3c1nc(C(=O)NCc1ccc(F)cc1)c(O)c3=O)C2 (stereo not drawn) [Example 211, Ethanediamide, N-[2-[[[(4-fluorophenyl)methyl]amino]carbonyl]-7,8,9,10-tetrahydro-3-hydroxy-4-oxo-8,11-methano-4H-pyrimido[1,2-a]azocin-11(6H)-yl]-N,N′,N′-trimethyl-] | < 0.01
